Consider three compounds from patent US20160318856A1, “Substituted Urea eIF2alpha Kinase Activators” (THE BRIGHAM AND WOMEN'S HOSPITAL, INC., priority 2013, published 2016).

Like-named read-outs stand apart in the source and are kept apart here.

Assay [1] has as its system eIF2α phosphorylation (eIF2•GTP•Met-tRNAi ternary complex; HRI activation). The assay can be described thus: surrogate dual luciferase eIF2α phosphorylation (ternary complex) assay. It counts as cell-based, human. The conditions noted are these: for maximal fold induction: Homo sapiens, surrogate eIF2α phosphorylation assay, Table 3, read-out: Emax (F/R). An outline of the steps:
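Cell-based dual luciferase reporter: firefly luciferase behind the ATF-4 5′UTR (uORFs) and renilla luciferase behind a uORF-free 5′UTR, read with a dual glow kit. Activity given as firefly/renilla ratio normalised to DMSO wells set at 1, with a rising ratio reflecting reduced ternary complex (e.g., HRI activation).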

The test system of assay [2] is CRL-2813 human melanoma cancer cells. The assay can be described thus: cell proliferation (SRB) assay, CRL-2813. The assay is classed as cell-based. An outline of the steps:
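Cells exposed 5 days to 0.5–20 μM compound, then TCA-fixed and stained with sulforhodamine B. Growth as 100×[(T−T0)/(C−T0)] from absorbance of treated, control and time-zero cultures; cell death as 100×[(T−T0)/T0] where T is below T0.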

Assay [3] relates to NIH/3T3 fibroblast cells. In words: cell proliferation (SRB) assay, NIH/3T3. It counts as cell-based. As to conditions: for fold higher potency on cancer cells compared to non-transformed cells: CRL-2813 human melanoma vs NIH-3T3 fibroblast. The protocol: (§1) Cells were seeded in 96-well plates and maintained for 5 days in the presence of 0.5 to 20 μM of individual compound, and cell proliferation was measured by the sulforhodamine B (SRB) assay as described previously (see, for example, Palakurthi, S. S. et al. Cancer Research 2000, 60(11), 2919-2925). Briefly, at the end of a 5-day treatment, cells were fixed in 10% cold trichloroacetic acid. Cell number was estimated by measuring the remaining bound dye of sulforhodamine B after washing. The percentage of growth was calculated by using the equation: 100×[(T−T0)/(C−T0)], where T and C represent the absorbance in treated and control cultures at Day 5, and T0 at time zero, respectively. If T is less than T0, cell death has occurred and can be calculated from 100×[(T−T0)/T0].
The experiments were conducted in triplicate, and each experiment was independently performed three times. IC50=effective dose of drug that inhibit cell proliferation by 50%. Data are shown as Mean±S.E.M.
Compounds I-6p, I-17, I-18 and I-20 were tested in NIH/3T3 fibroblast and CRL-2813 melanoma cancer cells in cell proliferation assay. The experiment was conducted in triplicate and each experiment was independently performed three times. Data are shown as Mean IC50±S.E.M.

Assay [4] deals with CRL-2813 human melanoma cancer cells transfected with HRI-targeting or non-targeting siRNA. The assay can be described thus: cell proliferation (SRB) assay after HRI knockdown. The conditions noted are these: CRL-2813 cells, FIG. 10. It counts as cell-based. The protocol:
as §1
Cell proliferation is a meaningful read-out for determining the specificity of a compound as it captures both on-target and off-target effects of the compound under study. […] If these compounds specifically activate HRI and this activity is required for the inhibition of cell proliferation, then reducing the expression of HRI should blunt their effect on cell proliferation. For this purpose, expression of HRI was knocked down in CRL-2813 human melanoma (about 70% knockdown efficiency) and MCF-7 human breast cancer cells (about 90% knockdown efficiency). These two cell lines were chosen because the HRI knockdown efficiency is lower in CRL-2813 than in MCF-7 cells providing a sort of dose-response data that correlates knockdown efficiency with the resistance of cells to inhibition of cell proliferation. […] Referring to FIG. 5A, CRL-2813 human melanoma cancer cells, and (FIG. 5B) MCF-7 human breast cancer cells were transfected with HRI targeted or non-targeted siRNA, treated with the indicated concentrations of I-6p and cell proliferation was measured by SRB assay. Calculated IC50 for all four compounds tested in CRL-2813 human melanoma cancer cells and MCF-7 human breast cancer cells transfected with non-target siRNA control (NTC) or HRI is shown in FIG. 5C and FIG. 5D, respectively. The experiment was conducted in triplicate and each experiment was independently performed three times. Data are shown as Mean±S.E.M. *NTC=non-target siRNA control.
Referring to FIG. 8, CRL-2813 human melanoma cancer cells were transfected with HRI targeted or non-targeted siRNA, treated with the indicated concentrations of (A) I-14, (B) I-15, (C) III-4 and (D) III-5 and cell proliferation was measured by SRB assay. Calculated IC50 for all four compounds tested in CRL-2813 human melanoma cancer cells transfected with non-target siRNA control (NTC) or HRI is shown in (E). The experiment was conducted in triplicate and each experiment was independently performed three times. Data are shown as Mean±S.E.M. *NTC=non-target siRNA control, IC50=effective dose of drug that inhibit cell proliferation by 50%.
In general, if the affinity of compounds for their molecular target is increased this should result in higher specificity of the compounds in the cell proliferation assay. […] These five compounds, two with average and three with high potency, were tested in cell proliferation assay using CRL-2813 cells transfected with non-targeted siRNA or HRI-targeted siRNA as described above.

The mark [5] stands for this setting: Homo sapiens, CRL2813, CRL-2813, Table 8, Mean IC50±S.E.M., read-out: IC50 of compounds.
Setting [6] is: Homo sapiens, CRL2813, cell proliferation assay, Table 3, cell line not named, values equal CRL-2813 values of Table 8, read-out: IC50.
Where [7] appears, read: Mus musculus, NIH3T3, NIH/3T3, Table 8, Mean IC50±S.E.M., read-out: IC50 of compounds.

For orientation: IC50 means the concentration needed to halve the response being measured. Regarding `O=C(Nc1ccc(OC(F)(F)F)cc1)NC1CCC(Oc2ccc(F)cc2)CC1` (stereo not drawn) [Compound I-6p], the “Emax (F/R)” value in assay [1] (ternary complex assay, F/R normalized to vehicle (DMSO = 1)) worked out at 15.32 F/R. The IC50 in assay [2] (CRL-2813, Table 5, Mean±S.E.M., read-out: IC50) turned out to be 2700 ± 100 nM; in assay [2] (CRL-2813, Table 8, Mean IC50±S.E.M., read-out: IC50 of compounds), 2700 ± 100 nM; in assay [2] (cell proliferation assay (SRB, 5 days), cell line not named in Table 1, values equal CRL-2813 values of Tables 5/8, read-out: IC50), 2700 ± 100 nM; in assay [3] (NIH/3T3, Table 5, Mean±S.E.M., read-out: IC50), 13.6 ± 0.8 µM; in assay [3] (NIH/3T3, Table 8, Mean IC50±S.E.M., read-out: IC50 of compounds), 13.6 ± 0.8 µM. The “fold higher potency on cancer cells compared to non-transformed cells” value in assay [3] was “five-fold higher potency”.

As for `O=C(Nc1cccc(C(F)(F)F)c1)NC1CCC(Oc2cccc(C(F)(F)F)c2)CC1` (stereo not drawn) [Compound I-20, 1-(4-(3-(Trifluoromethyl)phenoxy)cyclohexyl)-3-(3-(trifluoromethyl)phenyl)urea], the maximal fold induction in assay [1] came to 26. Besides, the IC50 was 1300 ± 100 nM in assay [2] (setting [5]), 1300 ± 100 nM in assay [2] (setting [6]) and 3.3 ± 0.2 µM in assay [3] (setting [7]). In addition, the “fold higher IC50 values in cells transfected with HRI-targeting siRNA vs. non-targeting siRNA” value in assay [4] is given as about 5 fold.

For the compound `O=C(Nc1cccc(C(F)(F)F)c1)NC1CCC(Oc2ccc(C(F)(F)F)cc2)CC1` (stereo not drawn) [Compound I-18, 1-(4-(4-(Trifluoromethyl)phenoxy)cyclohexyl)-3-(3-(trifluoromethyl)phenyl)urea], the maximal fold induction in assay [1] worked out at 25.1. In addition, the results for the IC50 in assay [2] (setting [5]), in assay [2] (setting [6]) and in assay [3] (setting [7]) were 460 ± 100 nM, 460 ± 100 nM and 3.4 ± 0.1 µM, respectively. For the same compound, the “fold higher potency on cancer cells compared to non-transformed cells” value in assay [3] was “highest discrimination between cancer and non-cancerous cells”. Moreover, the “fold higher IC50 values in cells transfected with HRI-targeting siRNA vs. non-targeting siRNA” value in assay [4] is about 7.5 fold.
